Experiments:
human PDE-6C = human PDE-6C (Homo sapiens, UniProt P51160); assay: Human PDE-6C inhibition assay (fluorescence polarization, FAM-cGMP); format: biochemical; conditions: read-out: IC50 (μM) PDE6C
human PDE-5A1 = human PDE-5A1 (Homo sapiens, UniProt O76074); assay: Human PDE-5A1 inhibition assay (fluorescence polarization, FAM-cGMP); format: biochemical; conditions: read-out: IC50 (μM) PDE5A1

human PDE-6C, sequence (P51160 whole entry): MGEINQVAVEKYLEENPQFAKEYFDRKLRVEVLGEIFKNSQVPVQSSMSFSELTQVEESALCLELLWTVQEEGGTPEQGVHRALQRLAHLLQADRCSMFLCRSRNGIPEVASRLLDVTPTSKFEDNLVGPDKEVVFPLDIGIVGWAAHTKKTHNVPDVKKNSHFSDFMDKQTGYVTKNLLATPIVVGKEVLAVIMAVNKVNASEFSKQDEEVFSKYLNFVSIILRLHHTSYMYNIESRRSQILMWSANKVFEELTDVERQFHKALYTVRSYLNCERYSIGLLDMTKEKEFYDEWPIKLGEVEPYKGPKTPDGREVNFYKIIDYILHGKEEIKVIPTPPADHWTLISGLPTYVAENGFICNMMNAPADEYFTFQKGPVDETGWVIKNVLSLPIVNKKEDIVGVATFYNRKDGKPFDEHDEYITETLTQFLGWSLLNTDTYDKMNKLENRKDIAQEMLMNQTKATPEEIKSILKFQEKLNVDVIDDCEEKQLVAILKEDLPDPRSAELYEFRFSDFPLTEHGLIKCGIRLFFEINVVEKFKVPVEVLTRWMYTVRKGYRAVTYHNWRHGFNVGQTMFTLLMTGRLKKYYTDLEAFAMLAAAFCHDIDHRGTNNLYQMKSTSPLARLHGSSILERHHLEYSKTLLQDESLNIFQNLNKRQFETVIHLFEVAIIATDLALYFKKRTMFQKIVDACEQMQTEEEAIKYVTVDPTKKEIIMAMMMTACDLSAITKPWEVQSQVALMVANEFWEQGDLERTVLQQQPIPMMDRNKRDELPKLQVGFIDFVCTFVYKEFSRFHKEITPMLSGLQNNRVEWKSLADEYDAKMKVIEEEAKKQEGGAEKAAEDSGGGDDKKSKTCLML

Structure (SMILES)	IC50 (human PDE-6C)	IC50 (human PDE-5A1)
CCCc1nn(C)c2c(=O)[nH]c(-c3cc(S(=O)(=O)NC4CN(CCCO[N+](=O)[O-])C4)ccc3OCC)nc12 [Compound 20, 3-(3-((4-ethoxy-3-(1-methyl-7-oxo-3-propyl-6,7-dihydro-1H-pyrazolo[4,3-d]pyrimidin-5-yl)phenyl)sulfonamido)azetidin-1-yl)propyl nitrate]	< 0.01 µM	0.01 to 0.1 µM
CCCc1nn(C)c2c(=O)[nH]c(-c3cc(S(=O)(=O)N4CC(N5CC(CO[N+](=O)[O-])C5)C4)ccc3OCC)nc12 [Compound 40, (1′-((4-ethoxy-3-(1-methyl-7-oxo-3-propyl-6,7-dihydro-1H-pyrazolo[4,3-d]pyrimidin-5-yl)phenyl)sulfonyl)-[1,3′-biazetidin]-3-yl)methyl nitrate]	< 0.01 µM	0.01 to 0.1 µM
CCCc1nn(C)c2c(=O)[nH]c(-c3cc(S(=O)(=O)N4CC(O)C4)ccc3OCC)nc12 [Compound 1, 5-(2-ethoxy-5-((3-hydroxyazetidin-1-yl)sulfonyl)phenyl)-1-methyl-3-propyl-1,6-dihydro-7H-pyrazolo[4,3-d] pyrimidin-7-one]	0.01 to 0.1 µM	0.01 to 0.1 µM
CCCc1nn(C)c2c(=O)[nH]c(-c3cc(S(=O)(=O)N4CC(OCCO)C4)ccc3OCC)nc12 [Compound 25, 5-(2-ethoxy-5-((3-(2-hydroxyethoxy)azetidin-1-yl)sulfonyl)phenyl)-1-methyl-3-propyl-1,6-dihydro-7H-pyrazolo[4,3-d] pyrimidin-7-one]	0.01 to 0.1 µM	0.01 to 0.1 µM
CCCc1nn(C)c2c(=O)[nH]c(-c3cc(S(=O)(=O)N4CC(OCCCCO)C4)ccc3OCC)nc12 [Compound 27, 5-(2-ethoxy-5-((3-(4-hydroxybutoxy)azetidin-1-yl)sulfonyl)phenyl)-1-methyl-3-propyl-1,6-dihydro-7H-pyrazolo[4,3-d]pyrimidin-7-one]	< 0.01 µM	0.01 to 0.1 µM
CCCc1nc(C)c2c(=O)[nH]c(-c3cc(S(=O)(=O)N4CC(N(C)CCCO[N+](=O)[O-])C4)ccc3OCC)nn12 [Compound 64, 3-((1-((4-ethoxy-3-(5-methyl-4-oxo-7-propyl-3,4-dihydroimidazo[5,1-f][1,2,4]triazin-2-yl)phenyl)sulfonyl)azetidin-3-yl)(methyl)amino)propyl nitrate]	–	< 0.01 µM
CCCc1nc(C)c2c(=O)[nH]c(-c3cc(S(=O)(=O)N4CC(CO)C4)ccc3OCC)nn12 [Compound 42, 2-(2-ethoxy-5-((3-(hydroxymethyl)azetidin-1-yl)sulfonyl)phenyl)-5-methyl-7-propylimidazo[5,1-f][1,2,4]triazin-4(3H)-one]	–	< 0.01 µM
CCCc1nc(C)c2c(=O)[nH]c(-c3cc(S(=O)(=O)N4CC(NCCO[N+](=O)[O-])C4)ccc3OCC)nn12 [Compound 61, 2-((1-((4-ethoxy-3-(5-methyl-4-oxo-7-propyl-3,4-dihydroimidazo[5,1-f][1,2,4]triazin-2-yl)phenyl)sulfonyl)azetidin-3-yl)amino)ethyl nitrate]	–	< 0.01 µM
CCCc1nc(C)c2c(=O)[nH]c(-c3cc(S(=O)(=O)N4CC(CCO[N+](=O)[O-])C4)ccc3OCC)nn12 [Compound 57, 2-(1-((4-ethoxy-3-(5-methyl-4-oxo-7-propyl-3,4-dihydroimidazo[5,1-f][1,2,4]triazin-2-yl)phenyl)sulfonyl)azetidin-3-yl) ethyl nitrate]	–	< 0.01 µM
CCCc1nc(C)c2c(=O)[nH]c(-c3cc(S(=O)(=O)N4CC(N(C)CCO[N+](=O)[O-])C4)ccc3OCC)nn12 [Compound 63, 2-((1-((4-ethoxy-3-(5-methyl-4-oxo-7-propyl-3,4-dihydroimidazo[5,1-f][1,2,4]triazin-2-yl)phenyl)sulfonyl)azetidin-3-yl)(methyl)amino)ethyl nitrate]	–	< 0.01 µM
CCCc1nc(C)c2c(=O)[nH]c(-c3cc(S(=O)(=O)N4CC(NCCCO)C4)ccc3OCC)nn12 [Compound 50, 2-(2-ethoxy-5-((3-((3-hydroxypropyl)amino)azetidin-1-yl)sulfonyl)phenyl)-5-methyl-7-propylimidazo[5,1-f][1,2,4]triazin-4(3H)-one]	–	< 0.01 µM
CCCc1nc(C)c2c(=O)[nH]c(-c3cc(S(=O)(=O)N4CC(CCO)C4)ccc3OCC)nn12 [Compound 43, 2-(2-ethoxy-5-((3-(2-hydroxyethyl)azetidin-1-yl)sulfonyl)phenyl)-5-methyl-7-propylimidazo[5,1-f][1,2,4]triazin-4(3H)-one]	–	< 0.01 µM
CCCc1nc(C)c2c(=O)[nH]c(-c3cc(S(=O)(=O)N4CC(O[N+](=O)[O-])C4)ccc3OCC)nn12 [Compound 55, 1-((4-ethoxy-3-(5-methyl-4-oxo-7-propyl-3,4-dihydroimidazo[5,1-f][1,2,4]triazin-2-yl)phenyl)sulfonyl)azetidin-3-yl nitrate]	–	< 0.01 µM

Continued, values first:

IC50 (human PDE-6C)	IC50 (human PDE-5A1)	Structure (SMILES)
–	< 0.01 µM	CCCc1nc(C)c2c(=O)[nH]c(-c3cc(S(=O)(=O)NC4CN(CCCO)C4)ccc3OCC)nn12 [Compound 47, 4-ethoxy-N-(1-(3-hydroxypropyl)azetidin-3-yl)-3-(5-methyl-4-oxo-7-propyl-3,4-dihydroimidazo[5,1-f][1,2,4]triazin-2-yl)benzenesulfonamide]
< 0.01 µM	< 0.01 µM	CCCc1nn(C)c2c(=O)[nH]c(-c3cc(S(=O)(=O)N4CC(N5CC(CCO)C5)C4)ccc3OCC)nc12 [Compound 33, 5-(2-ethoxy-5-((3-(2-hydroxyethyl)-[1,3′-biazetidin]-1′-yl)sulfonyl)phenyl)-1-methyl-3-propyl-1,6-dihydro-7H-pyrazolo[4,3-d]pyrimidin-7-one]
< 0.01 µM	< 0.01 µM	CCCc1nn(C)c2c(=O)[nH]c(-c3cc(S(=O)(=O)N4CC(NCCO[N+](=O)[O-])C4)ccc3OCC)nc12 [Compound 21, 2-((1-((4-ethoxy-3-(1-methyl-7-oxo-3-propyl-6,7-dihydro-1H-pyrazolo[4,3-d]pyrimidin-5-yl)phenyl)sulfonyl)azetidin-3-yl)amino)ethyl nitrate]
–	< 0.01 µM	CCCc1nc(C)c2c(=O)[nH]c(-c3cc(S(=O)(=O)NC4CN(CCO[N+](=O)[O-])C4)ccc3OCC)nn12 [Compound 59, 2-(3-((4-ethoxy-3-(5-methyl-4-oxo-7-propyl-3,4-dihydroimidazo[5,1-f][1,2,4]triazin-2-yl)phenyl)sulfonamido)azetidin-1-yl)ethyl nitrate]
–	< 0.01 µM	CCCc1nc(C)c2c(=O)[nH]c(-c3cc(S(=O)(=O)N4CC(O)C4)ccc3OCC)nn12 [Compound 41, 2-(2-ethoxy-5-((3-hydroxyazetidin-1-yl)sulfonyl)phenyl)-5-methyl-7-propylimidazo[5,1-f][1,2,4]triazin-4(3H)-one]
–	< 0.01 µM	CCCc1nc(C)c2c(=O)[nH]c(-c3cc(S(=O)(=O)N4CC(NCCCO[N+](=O)[O-])C4)ccc3OCC)nn12 [Compound 62, 3-((1-((4-ethoxy-3-(5-methyl-4-oxo-7-propyl-3,4-dihydroimidazo[5,1-f][1,2,4]triazin-2-yl)phenyl)sulfonyl)azetidin-3-yl)amino)propyl nitrate]
–	< 0.01 µM	CCCc1nc(C)c2c(=O)[nH]c(-c3cc(S(=O)(=O)N4CC(CCCO)C4)ccc3OCC)nn12 [Compound 44, 2-(2-ethoxy-5-((3-(3-hydroxypropyl)azetidin-1-yl)sulfonyl)phenyl)-5-methyl-7-propylimidazo[5,1-f][1,2,4]triazin-4(3H)-one]
–	< 0.01 µM	CCCc1nc(C)c2c(=O)[nH]c(-c3cc(S(=O)(=O)N4CC(CO[N+](=O)[O-])C4)ccc3OCC)nn12 [Compound 56, (1-((4-ethoxy-3-(5-methyl-4-oxo-7-propyl-3,4-dihydroimidazo[5,1-f][1,2,4]triazin-2-yl)phenyl)sulfonyl)azetidin-3-yl)methyl nitrate]
–	< 0.01 µM	CCCc1nc(C)c2c(=O)[nH]c(-c3cc(S(=O)(=O)N4CC(CN)C4)ccc3OCC)nn12 [Compound 45]
–	< 0.01 µM	CCCc1nc(C)c2c(=O)[nH]c(-c3cc(S(=O)(=O)NC4CN(CCCO[N+](=O)[O-])C4)ccc3OCC)nn12 [Compound 60, 3-(3-((4-ethoxy-3-(5-methyl-4-oxo-7-propyl-3,4-dihydroimidazo[5,1-f][1,2,4]triazin-2-yl)phenyl)sulfonamido)azetidin-1-yl)propyl nitrate]
–	< 0.01 µM	CCCc1nc(C)c2c(=O)[nH]c(-c3cc(S(=O)(=O)N4CC(NCCO)C4)ccc3OCC)nn12 [Compound 49, 2-(2-ethoxy-5-((3-((2-hydroxyethyl)amino)azetidin-1-yl)sulfonyl)phenyl)-5-methyl-7-propylimidazo[5,1-f][1,2,4]triazin-4(3H)-one]
–	< 0.01 µM	CCCc1nc(C)c2c(=O)[nH]c(-c3cc(S(=O)(=O)N4CC(N(C)CCO)C4)ccc3OCC)nn12 [Compound 52, 2-(2-ethoxy-5-((3-((2-hydroxyethyl)(methyl)amino)azetidin-1-yl)sulfonyl)phenyl)-5-methyl-7-propylimidazo[5,1-f][1,2,4]triazin-4(3H)-one]
–	< 0.01 µM	CCCc1nc(C)c2c(=O)[nH]c(-c3cc(S(=O)(=O)N4CC(N(C)CCCO)C4)ccc3OCC)nn12 [Compound 53, 2-(2-ethoxy-5-((3-((3-hydroxypropyl)(methyl)amino)azetidin-1-yl)sulfonyl)phenyl)-5-methyl-7-propylimidazo[5,1-f][1,2,4]triazin-4(3H)-one]
–	< 0.01 µM	CCCc1nc(C)c2c(=O)[nH]c(-c3cc(S(=O)(=O)N4CC(CCCO[N+](=O)[O-])C4)ccc3OCC)nn12 [Compound 58, 3-(1-((4-ethoxy-3-(5-methyl-4-oxo-7-propyl-3,4-dihydroimidazo[5,1-f][1,2,4]triazin-2-yl)phenyl)sulfonyl)azetidin-3-yl) propyl nitrate]
–	< 0.01 µM	CCCc1nc(C)c2c(=O)[nH]c(-c3cc(S(=O)(=O)NC4CN(CCO)C4)ccc3OCC)nn12 [Compound 46, 4-ethoxy-N-(1-(2-hydroxyethyl)azetidin-3-yl)-3-(5-methyl-4-oxo-7-propyl-3,4-dihydroimidazo[5,1-f][1,2,4]triazin-2-yl)benzenesulfonamide]

Reference: patent US20220153746A1, “NITROGEN OXIDE-DONATING PDE-5 AND/OR PDE-6 INHIBITOR COMPOUNDS, AND USES THEREOF” (ILDONG PHARMACEUTICAL CO., LTD., priority 2020, published 2022)
